PubChem BioAssay (NCI)
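These data come from cells grown in 96-well plates and exposed to compound for 48 hours at five concentrations. TGI marks complete inhibition of growth.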

Tested on: SNB-75 CNS
Assay: DTP human tumour cell line panel, 48 h

Compound | TGI [µM]
Cc1ccc(S(=O)(=O)c2[nH]cc(/C(=C\C3CCCCC3)[N+](=O)[O-])c2C2CCCCC2)cc1 | 5.81
Nc1ccc2c(c1)C(=O)N1CCC[C@H]1C(=O)N2 | > 100
Cc1ccc2c(c1)C(=S)N1CSCC1c1nncn1-2 (stereo not drawn) | > 100
CC1(C)C(C#N)C1C1=C(N2CCOCC2)[C@]2(C)C(OC(=O)c3ccccc3)CC[C@@H]2C1 (stereo partly drawn) | > 100
COc1cccc(C2c3cc4c(cc3OC(N3CCCCC3)C2C)OCO4)c1O (stereo not drawn) | 68.5
N#Cc1n[nH]n(-c2ccc(Br)cc2)c1=O | > 100
O=C1c2ccccc2C(=O)c2c(NCC(O)CO)ccc(NCC(O)CO)c21 (stereo not drawn) | > 100
COc1cccc(C(=O)Oc2ccc(OS(=O)(=O)c3ccc(C)cc3)cc2)c1C#N | > 100
CC1=C(C)CC2C(=O)N(c3cc(C(C)(C)C)ccc3C(C)(C)C)C(=O)C2C1 (stereo not drawn) | 56.2
N=C(N)C1CN(CCc2c[nH]c3ccccc23)C(=O)NC1=O (stereo not drawn) | > 100
O=[N+]([O-])c1ccc(CN(CCCl)OCCCl)cc1 | > 100
CC1=NN(c2nc(N)nc(/C(C#N)=C\c3ccc([N+](=O)[O-])s3)n2)C(C)(C)C1 | 1.93
CN1CCc2c([nH]c3ccccc23)C1 | > 100
O=C(Nc1ccccc1)c1cc(S(=O)(=O)NC2=NC(c3ccccc3)c3cc(Cl)ccc3N2)c(SSc2cc(Cl)c(C(=O)Nc3ccccc3)cc2S(=O)(=O)NC2=NC(c3ccccc3)c3cc(Cl)ccc3N2)cc1Cl (stereo not drawn) | > 100
COc1ccc(C2SC(N)=Nc3c2c(C)nn3C(=O)c2ccncc2)cc1OC (stereo not drawn) | > 10
CC1CC(OP(=O)(OCc2ccccc2)OCc2ccccc2)[C@@H](OCc2ccccc2)C(OCc2ccccc2)C1OCc1ccccc1 (stereo partly drawn) | > 100
CCO/C(O)=C(/C(=N)N1CCOCC1)C(=O)Nc1ccc(F)cc1 | > 100
CCOC(=O)NC(Nc1ccc(C)cc1)(C(F)(F)F)C(F)(F)F | > 100
CCOC(=O)CCC(NC(=O)Cc1ccc(Nc2nc3cc(F)c(F)cc3nc2C(=O)OCC)cc1)C(=O)OCC (stereo not drawn) | 77.2
[N-]=[N+]=Nc1c([N+](=O)[O-])c(=O)n(-c2ccccc2)c2ccccc12 | 68.1

Tested on: A498 renal
Assay: DTP human tumour cell line panel, 48 h

Compound | TGI [µM]
Cc1ccc(S(=O)(=O)c2[nH]cc(/C(=C\C3CCCCC3)[N+](=O)[O-])c2C2CCCCC2)cc1 | 0.837
Nc1ccc2c(c1)C(=O)N1CCC[C@H]1C(=O)N2 | > 100
Cc1ccc2c(c1)C(=S)N1CSCC1c1nncn1-2 (stereo not drawn) | > 100
CC1(C)C(C#N)C1C1=C(N2CCOCC2)[C@]2(C)C(OC(=O)c3ccccc3)CC[C@@H]2C1 (stereo partly drawn) | > 100
N#Cc1n[nH]n(-c2ccc(Br)cc2)c1=O | > 100
O=C1c2ccccc2C(=O)c2c(NCC(O)CO)ccc(NCC(O)CO)c21 (stereo not drawn) | > 100
N=C(N)C1CN(CCc2c[nH]c3ccccc23)C(=O)NC1=O (stereo not drawn) | > 100
CC1=NN(c2nc(N)nc(/C(C#N)=C\c3ccc([N+](=O)[O-])s3)n2)C(C)(C)C1 | 26.8
O=c1[nH]cnc2c1cnn2Cc1cn(CCCCO)nn1 | > 100
Cn1c(=O)c2c(ncn2CCNC(CO)C(O)c2ccc([N+](=O)[O-])cc2)n(C)c1=O (stereo not drawn) | > 100
CCCNC(=O)NNC(=O)c1c[nH]c2nc(C)ccc2c1=O | > 100
CCO/C(O)=C(/C(=N)N1CCOCC1)C(=O)Nc1ccc(F)cc1 | > 100
C[C@H]1[C@H]2[C@H]3CC[C@@H]4[C@@]5(C)CC[C@H](O)C(C)(C)[C@@H]5CC[C@@]4(C)[C@]3(C)C[C@H](O)[C@@]2(C)C[C@H]2O[C@]21C | 38.7
O=C(O)CCCc1nc2c(n1Cc1ccccc1)C(=O)c1ccccc1C2=O | > 100
CCOC(=O)NC(Nc1ccc(C)cc1)(C(F)(F)F)C(F)(F)F | > 100
CCOC(=O)CCC(NC(=O)Cc1ccc(Nc2nc3cc(F)c(F)cc3nc2C(=O)OCC)cc1)C(=O)OCC (stereo not drawn) | > 100
[N-]=[N+]=Nc1c([N+](=O)[O-])c(=O)n(-c2ccccc2)c2ccccc12 | > 100

Tested on: T-47D breast
Assay: DTP human tumour cell line panel, 48 h

Compound | TGI [µM]
Cc1ccc(S(=O)(=O)c2[nH]cc(/C(=C\C3CCCCC3)[N+](=O)[O-])c2C2CCCCC2)cc1 | 1.29
Nc1ccc2c(c1)C(=O)N1CCC[C@H]1C(=O)N2 | > 100
Cc1ccc2c(c1)C(=S)N1CSCC1c1nncn1-2 (stereo not drawn) | > 100
CC1(C)C(C#N)C1C1=C(N2CCOCC2)[C@]2(C)C(OC(=O)c3ccccc3)CC[C@@H]2C1 (stereo partly drawn) | > 100
COc1cccc(C2c3cc4c(cc3OC(N3CCCCC3)C2C)OCO4)c1O (stereo not drawn) | 80
N#Cc1n[nH]n(-c2ccc(Br)cc2)c1=O | > 100
O=C1c2ccccc2C(=O)c2c(NCC(O)CO)ccc(NCC(O)CO)c21 (stereo not drawn) | > 100
COc1cccc(C(=O)Oc2ccc(OS(=O)(=O)c3ccc(C)cc3)cc2)c1C#N | 71.7
CC1=C(C)CC2C(=O)N(c3cc(C(C)(C)C)ccc3C(C)(C)C)C(=O)C2C1 (stereo not drawn) | > 100
N=C(N)C1CN(CCc2c[nH]c3ccccc23)C(=O)NC1=O (stereo not drawn) | > 100
O=[N+]([O-])c1ccc(CN(CCCl)OCCCl)cc1 | > 100
CC1=NN(c2nc(N)nc(/C(C#N)=C\c3ccc([N+](=O)[O-])s3)n2)C(C)(C)C1 | 0.264
O=c1[nH]cnc2c1cnn2Cc1cn(CCCCO)nn1 | > 100
CN1CCc2c([nH]c3ccccc23)C1 | > 100
Cn1c(=O)c2c(ncn2CCNC(CO)C(O)c2ccc([N+](=O)[O-])cc2)n(C)c1=O (stereo not drawn) | > 100
CCCNC(=O)NNC(=O)c1c[nH]c2nc(C)ccc2c1=O | > 100
O=C(Nc1ccccc1)c1cc(S(=O)(=O)NC2=NC(c3ccccc3)c3cc(Cl)ccc3N2)c(SSc2cc(Cl)c(C(=O)Nc3ccccc3)cc2S(=O)(=O)NC2=NC(c3ccccc3)c3cc(Cl)ccc3N2)cc1Cl (stereo not drawn) | > 100
COc1ccc(C2SC(N)=Nc3c2c(C)nn3C(=O)c2ccncc2)cc1OC (stereo not drawn) | > 10
CC1CC(OP(=O)(OCc2ccccc2)OCc2ccccc2)[C@@H](OCc2ccccc2)C(OCc2ccccc2)C1OCc1ccccc1 (stereo partly drawn) | > 100
CCO/C(O)=C(/C(=N)N1CCOCC1)C(=O)Nc1ccc(F)cc1 | > 100
C[C@H]1[C@H]2[C@H]3CC[C@@H]4[C@@]5(C)CC[C@H](O)C(C)(C)[C@@H]5CC[C@@]4(C)[C@]3(C)C[C@H](O)[C@@]2(C)C[C@H]2O[C@]21C | 46.8
O=C(O)CCCc1nc2c(n1Cc1ccccc1)C(=O)c1ccccc1C2=O | > 100
CCOC(=O)NC(Nc1ccc(C)cc1)(C(F)(F)F)C(F)(F)F | > 100
CCOC(=O)CCC(NC(=O)Cc1ccc(Nc2nc3cc(F)c(F)cc3nc2C(=O)OCC)cc1)C(=O)OCC (stereo not drawn) | 78.8
[N-]=[N+]=Nc1c([N+](=O)[O-])c(=O)n(-c2ccccc2)c2ccccc12 | > 100

Tested on: K-562 leukemia
Assay: DTP human tumour cell line panel, 48 h

Compound | TGI [µM]
Cc1ccc(S(=O)(=O)c2[nH]cc(/C(=C\C3CCCCC3)[N+](=O)[O-])c2C2CCCCC2)cc1 | 0.923
Nc1ccc2c(c1)C(=O)N1CCC[C@H]1C(=O)N2 | > 100
Cc1ccc2c(c1)C(=S)N1CSCC1c1nncn1-2 (stereo not drawn) | > 100
CC1(C)C(C#N)C1C1=C(N2CCOCC2)[C@]2(C)C(OC(=O)c3ccccc3)CC[C@@H]2C1 (stereo partly drawn) | > 100
COc1cccc(C2c3cc4c(cc3OC(N3CCCCC3)C2C)OCO4)c1O (stereo not drawn) | 12.7
N#Cc1n[nH]n(-c2ccc(Br)cc2)c1=O | > 100
O=C1c2ccccc2C(=O)c2c(NCC(O)CO)ccc(NCC(O)CO)c21 (stereo not drawn) | > 100
COc1cccc(C(=O)Oc2ccc(OS(=O)(=O)c3ccc(C)cc3)cc2)c1C#N | > 100
CC1=C(C)CC2C(=O)N(c3cc(C(C)(C)C)ccc3C(C)(C)C)C(=O)C2C1 (stereo not drawn) | > 100
N=C(N)C1CN(CCc2c[nH]c3ccccc23)C(=O)NC1=O (stereo not drawn) | > 100
O=[N+]([O-])c1ccc(CN(CCCl)OCCCl)cc1 | > 100
CC1=NN(c2nc(N)nc(/C(C#N)=C\c3ccc([N+](=O)[O-])s3)n2)C(C)(C)C1 | 0.355
O=c1[nH]cnc2c1cnn2Cc1cn(CCCCO)nn1 | > 100
CN1CCc2c([nH]c3ccccc23)C1 | > 100
Cn1c(=O)c2c(ncn2CCNC(CO)C(O)c2ccc([N+](=O)[O-])cc2)n(C)c1=O (stereo not drawn) | > 100
CCCNC(=O)NNC(=O)c1c[nH]c2nc(C)ccc2c1=O | > 100
O=C(Nc1ccccc1)c1cc(S(=O)(=O)NC2=NC(c3ccccc3)c3cc(Cl)ccc3N2)c(SSc2cc(Cl)c(C(=O)Nc3ccccc3)cc2S(=O)(=O)NC2=NC(c3ccccc3)c3cc(Cl)ccc3N2)cc1Cl (stereo not drawn) | > 100
COc1ccc(C2SC(N)=Nc3c2c(C)nn3C(=O)c2ccncc2)cc1OC (stereo not drawn) | > 10
CC1CC(OP(=O)(OCc2ccccc2)OCc2ccccc2)[C@@H](OCc2ccccc2)C(OCc2ccccc2)C1OCc1ccccc1 (stereo partly drawn) | > 100
CCO/C(O)=C(/C(=N)N1CCOCC1)C(=O)Nc1ccc(F)cc1 | > 100
O=C(O)CCCc1nc2c(n1Cc1ccccc1)C(=O)c1ccccc1C2=O | > 100
CCOC(=O)NC(Nc1ccc(C)cc1)(C(F)(F)F)C(F)(F)F | > 100
CCOC(=O)CCC(NC(=O)Cc1ccc(Nc2nc3cc(F)c(F)cc3nc2C(=O)OCC)cc1)C(=O)OCC (stereo not drawn) | > 100
[N-]=[N+]=Nc1c([N+](=O)[O-])c(=O)n(-c2ccccc2)c2ccccc12 | 64.8

Tested on: HL-60(TB) leukemia
Assay: DTP human tumour cell line panel, 48 h

Compound | TGI [µM]
COc1cccc(C2c3cc4c(cc3OC(N3CCCCC3)C2C)OCO4)c1O (stereo not drawn) | 5.92
N#Cc1n[nH]n(-c2ccc(Br)cc2)c1=O | > 100
O=C1c2ccccc2C(=O)c2c(NCC(O)CO)ccc(NCC(O)CO)c21 (stereo not drawn) | > 100
COc1cccc(C(=O)Oc2ccc(OS(=O)(=O)c3ccc(C)cc3)cc2)c1C#N | > 100
CC1=C(C)CC2C(=O)N(c3cc(C(C)(C)C)ccc3C(C)(C)C)C(=O)C2C1 (stereo not drawn) | > 100
N=C(N)C1CN(CCc2c[nH]c3ccccc23)C(=O)NC1=O (stereo not drawn) | > 100
O=[N+]([O-])c1ccc(CN(CCCl)OCCCl)cc1 | > 100
CN1CCc2c([nH]c3ccccc23)C1 | > 100
Cn1c(=O)c2c(ncn2CCNC(CO)C(O)c2ccc([N+](=O)[O-])cc2)n(C)c1=O (stereo not drawn) | > 100
CCCNC(=O)NNC(=O)c1c[nH]c2nc(C)ccc2c1=O | > 100
O=C(Nc1ccccc1)c1cc(S(=O)(=O)NC2=NC(c3ccccc3)c3cc(Cl)ccc3N2)c(SSc2cc(Cl)c(C(=O)Nc3ccccc3)cc2S(=O)(=O)NC2=NC(c3ccccc3)c3cc(Cl)ccc3N2)cc1Cl (stereo not drawn) | > 53.9
COc1ccc(C2SC(N)=Nc3c2c(C)nn3C(=O)c2ccncc2)cc1OC (stereo not drawn) | > 10
CC1CC(OP(=O)(OCc2ccccc2)OCc2ccccc2)[C@@H](OCc2ccccc2)C(OCc2ccccc2)C1OCc1ccccc1 (stereo partly drawn) | > 100
CCO/C(O)=C(/C(=N)N1CCOCC1)C(=O)Nc1ccc(F)cc1 | > 100
C[C@H]1[C@H]2[C@H]3CC[C@@H]4[C@@]5(C)CC[C@H](O)C(C)(C)[C@@H]5CC[C@@]4(C)[C@]3(C)C[C@H](O)[C@@]2(C)C[C@H]2O[C@]21C | > 100
O=C(O)CCCc1nc2c(n1Cc1ccccc1)C(=O)c1ccccc1C2=O | 88.3
CCOC(=O)NC(Nc1ccc(C)cc1)(C(F)(F)F)C(F)(F)F | > 100
CCOC(=O)CCC(NC(=O)Cc1ccc(Nc2nc3cc(F)c(F)cc3nc2C(=O)OCC)cc1)C(=O)OCC (stereo not drawn) | 50

Tested on: 786-0 renal
Assay: DTP human tumour cell line panel, 48 h

Compound | TGI [µM]
Cc1ccc(S(=O)(=O)c2[nH]cc(/C(=C\C3CCCCC3)[N+](=O)[O-])c2C2CCCCC2)cc1 | 0.442
Nc1ccc2c(c1)C(=O)N1CCC[C@H]1C(=O)N2 | > 100
Cc1ccc2c(c1)C(=S)N1CSCC1c1nncn1-2 (stereo not drawn) | > 100
CC1(C)C(C#N)C1C1=C(N2CCOCC2)[C@]2(C)C(OC(=O)c3ccccc3)CC[C@@H]2C1 (stereo partly drawn) | > 100
COc1cccc(C2c3cc4c(cc3OC(N3CCCCC3)C2C)OCO4)c1O (stereo not drawn) | 26.2
N#Cc1n[nH]n(-c2ccc(Br)cc2)c1=O | > 100
O=C1c2ccccc2C(=O)c2c(NCC(O)CO)ccc(NCC(O)CO)c21 (stereo not drawn) | > 100
COc1cccc(C(=O)Oc2ccc(OS(=O)(=O)c3ccc(C)cc3)cc2)c1C#N | > 100
CC1=C(C)CC2C(=O)N(c3cc(C(C)(C)C)ccc3C(C)(C)C)C(=O)C2C1 (stereo not drawn) | > 100
